Data taken from PubChem BioAssay (NCI).
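A five-concentration, 48-hour dose response in 96-well plates underlies each endpoint, interpolated linearly between surrounding concentrations. TGI denotes the concentration required for complete inhibition of growth.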

Experiments:
Test in all cases: growth of human tumour cells (NCI), 48 h
HS 578T breast = test system: HS 578T breast
TK-10 renal = test system: TK-10 renal
BT-549 breast = test system: BT-549 breast
NCI-H460 lung = test system: NCI-H460 lung
K-562 leukemia = test system: K-562 leukemia
SK-MEL-28 melanoma = test system: SK-MEL-28 melanoma
SK-OV-3 ovarian = test system: SK-OV-3 ovarian
IGROV1 ovarian = test system: IGROV1 ovarian
A498 renal = test system: A498 renal
MALME-3M melanoma = test system: MALME-3M melanoma
KM12 colon = test system: KM12 colon
SR leukemia = test system: SR leukemia
UO-31 renal = test system: UO-31 renal
NCI-H226 lung = test system: NCI-H226 lung
OVCAR-5 ovarian = test system: OVCAR-5 ovarian
HL-60(TB) leukemia = test system: HL-60(TB) leukemia
PC-3 prostate = test system: PC-3 prostate
UACC-62 melanoma = test system: UACC-62 melanoma
OVCAR-4 ovarian = test system: OVCAR-4 ovarian
DU-145 prostate = test system: DU-145 prostate
SW-620 colon = test system: SW-620 colon
SF-295 CNS = test system: SF-295 CNS
HOP-92 NSCLC = test system: HOP-92 NSCLC
786-0 renal = test system: 786-0 renal
RXF 393 renal = test system: RXF 393 renal
HCT-116 colon = test system: HCT-116 colon
MDA-MB-231 breast = test system: MDA-MB-231 breast
SK-MEL-5 melanoma = test system: SK-MEL-5 melanoma
SF-268 CNS = test system: SF-268 CNS
ACHN renal = test system: ACHN renal
U251 CNS = test system: U251 CNS
SN12C renal = test system: SN12C renal
M14 melanoma = test system: M14 melanoma
CAKI-1 renal = test system: CAKI-1 renal
SNB-19 CNS = test system: SNB-19 CNS
UACC-257 melanoma = test system: UACC-257 melanoma
NCI/ADR-RES ovarian = test system: NCI/ADR-RES ovarian
A549 NSCLC = test system: A549 NSCLC
HCT-15 colon = test system: HCT-15 colon
LOX IMVI melanoma = test system: LOX IMVI melanoma
SK-MEL-2 melanoma = test system: SK-MEL-2 melanoma
HOP-62 NSCLC = test system: HOP-62 NSCLC
HCC-2998 colon = test system: HCC-2998 colon
EKVX NSCLC = test system: EKVX NSCLC
SF-539 CNS = test system: SF-539 CNS
MCF7 breast = test system: MCF7 breast
OVCAR-8 ovarian = test system: OVCAR-8 ovarian
COLO 205 colon = test system: COLO 205 colon
HT29 colon = test system: HT29 colon
RPMI-8226 leukemia = test system: RPMI-8226 leukemia

Work on `C=C(c1ccc2nc(NC(=O)OC)[nH]c2c1)c1cccs1` yielded a TGI (HS 578T breast) greater than 100 µM, a TGI (TK-10 renal) greater than 100 µM and a TGI (BT-549 breast) greater than 100 µM. For the same compound, the TGI (NCI-H460 lung) was greater than 100 µM, the TGI (K-562 leukemia) was greater than 35.5 µM and the TGI (SK-MEL-28 melanoma) was greater than 100 µM. The TGI (SK-OV-3 ovarian) was greater than 45.1 µM, the TGI (IGROV1 ovarian) was greater than 100 µM and the TGI (A498 renal) was 2.71 µM. The TGI (MALME-3M melanoma) was greater than 100 µM, the TGI (KM12 colon) was greater than 100 µM and the TGI (SR leukemia) was 1.11 µM. It also gave a TGI (UO-31 renal) greater than 62.4 µM, a TGI (NCI-H226 lung) greater than 94.5 µM and a TGI (OVCAR-5 ovarian) greater than 100 µM. The TGI (HL-60(TB) leukemia) was greater than 32.7 µM, the TGI (PC-3 prostate) was greater than 100 µM and the TGI (UACC-62 melanoma) was greater than 100 µM. For the same compound, the TGI (OVCAR-4 ovarian) was greater than 100 µM, the TGI (DU-145 prostate) was greater than 100 µM and the TGI (SW-620 colon) was greater than 100 µM. For the same compound, the TGI (SF-295 CNS) was 0.934 µM, the TGI (HOP-92 NSCLC) was greater than 31 µM and the TGI (786-0 renal) was greater than 100 µM. It also gave a TGI (RXF 393 renal) greater than 100 µM, a TGI (HCT-116 colon) greater than 45.2 µM and a TGI (MDA-MB-231 breast) greater than 100 µM. For the same compound, the TGI (SK-MEL-5 melanoma) was greater than 20.7 µM, the TGI (SF-268 CNS) was greater than 100 µM and the TGI (ACHN renal) was 7.47 µM. It also gave a TGI (U251 CNS) of 7.31 µM, a TGI (SN12C renal) greater than 100 µM and a TGI (M14 melanoma) greater than 100 µM. The TGI (CAKI-1 renal) was 8.27 µM, the TGI (SNB-19 CNS) was greater than 100 µM and the TGI (UACC-257 melanoma) was greater than 100 µM. The TGI (NCI/ADR-RES ovarian) was 0.87 µM, the TGI (A549 NSCLC) was greater than 100 µM and the TGI (HCT-15 colon) was 2.24 µM. The TGI (LOX IMVI melanoma) was greater than 52.6 µM, the TGI (SK-MEL-2 melanoma) was greater than 100 µM and the TGI (HOP-62 NSCLC) was greater than 77.4 µM. It also gave a TGI (HCC-2998 colon) of 0.86 µM, a TGI (EKVX NSCLC) greater than 100 µM and a TGI (SF-539 CNS) of 0.523 µM. The TGI (MCF7 breast) was greater than 100 µM, the TGI (OVCAR-8 ovarian) was greater than 36.4 µM and the TGI (COLO 205 colon) was greater than 100 µM. For the same compound, the TGI (HT29 colon) was greater than 100 µM and the TGI (RPMI-8226 leukemia) was 3.59 µM.
